Experimental findings from patent publication US12617784B2, “AKT inhibitor” (Nanjing Chia Tai Tianqing Pharmaceutical Co., Ltd., priority 2019, dated 2026) are described below.

Molecules are shown by their SMILES. Structures can show the parent of a compound that is named as a salt. Where two headings read alike, the source gives them in different places. Where only a bound is given, the exact number is not on record here.

A short description of data set [1]: Pharmacokinetic evaluation in mice after intragastric administration. The settings on record: po. It is filed as in vivo, mouse. As for the experimental part:
400 μl of stock solution with a concentration of 10 mg/mL was accurately pipetted into a glass bottle, and 3.6 mL of mixed menstruum was added. The ratio of the menstruum in the final formulation is DMSO:mixed menstruum (v/v)=10:90. After vortexing (or sonication) and evenly distributed, 4 mL of a dosing solution with a concentration of 1 mg mL^-1 for each compound was obtained. Formulation of Isomer 2 of the compound of Example 15: Menstruum: DMSO: PEG400: ultrapure water=5:20:75 (v/v/v) 5.37 mg of test sample Isomer 2 of the compound of Example 15 was weighed into a glass bottle; 0.269 mL of DMSO was added, vortexed to completely dissolve the solid material; 1.074 mL of PEG400 was added, vortexed, and mixed; 4.028 mL of ultrapure water was added, vortexed and mixed to obtain a colorless solution with a concentration of 1 mg·mL^-1. Experimental animal: mouse, strain ICR, source: Weitong Lihua Laboratory Animal Technology Co., Ltd., age: 6-10 weeks, male. [table] The experimental animals were fed in the animal room of Suzhou Shengsu New Pharmaceutical Development Co., Ltd. The animal room was well ventilated and equipped with air conditioning. The temperature was maintained at 20-25° C. and the humidity was maintained at 40%-70%. Bright and dark lighting for 12 hours each, and the experimental animals ate and drank freely. After normal feeding for at least 5 days, mice with good physical signs were selected for this experiment after veterinary inspection. Each mouse was marked with a tag on its tail. On the day before the experiment, the mice were fasted overnight and were allowed to drink freely, and were fed 4 hours after the administration. […] After the administration, about 100 μL of blood was collected from the orbit of the mouse at each time point and placed in an EDTA-K2 anticoagulation tube. […] An LC-MS/MS analytical method for determining the concentration of compounds in mouse plasma was established and used to determine the concentration of compounds in the biological samples obtained in this experiment. The non-compartmental model in Pharsight Phoenix 7.0 was used to calculate the pharmacokinetic parameters.

Another data set deals with AKT1 (Homo sapiens, UniProt P31749). Kind of data set: In vitro enzyme activity test (HTRF kinEASE TK), AKT1. The settings on record: ATP 2 μM, enzyme 0.6 ng/well, reaction 50 min. It is filed as biochemical. The procedure: (§1) Experimental Procedure 2.1 Preparation of Reagents
(§2) 1 mL 1× Kinase Reaction Buffer of Kinase AKT1, AKT2 and AKT3 contain 200 μL 5× Kinase Reaction Buffer, 5 μL 1 M MgCl2, 1 μL 1 M DTT and 794 μL ultrapure water.
(§3) In addition to the control wells, 4 μL of the diluted compound working solutions were added to all reaction wells.
(§4) b) 2 μL of the previously prepared TK-biotin substrate solution was added to all reaction wells.
(§5) c) 2 μL of the previously prepared enzyme solution was added to all reaction wells, except the negative wells. The volume of the negative well was filled with 2 μL of enzyme corresponding to 1× kinase reaction buffer. The plate was sealed with sealing film. After mixing, the plate was incubated at room temperature for 10 min to allow the compound and enzyme to fully combined.
(§6) d) 2 μL of ATP solution was added to all reaction wells to start the kinase reaction.
(§7) e) The test solution was prepared 5 min before the end of the kinase reaction.
(§8) f) After the kinase reaction was completed, 5 μL of diluted streptavidin-XL665 were added to all reaction wells, and immediately the diluted europium-labeled tyrosine kinase substrate antibody detection solution was added after mixing.
(§9) g) The plate was sealed and mixed well. […] The inhibition rate of each well was calculated through the fully active wells and the background signal wells, taking the average value in case of multiple wells. Meanwhile, the professional drawing analysis software PRISM 6.0 was used to fit the half maximal inhibitory concentration (IC50) of each test compound.

The target in another data set is T1, AKT3 (Homo sapiens, UniProt Q9Y243).
T1 construct: purchased Invitrogen PV3185
Kind of data set: In vitro enzyme activity test (HTRF kinEASE TK), AKT3. Particulars: enzyme 0.3 ng/well, reaction 50 min. It is filed as biochemical. The procedure: as §1, §2, §3, §4, §5, §6, §7, §8, §9
For orientation: Time-resolved FRET reads energy transfer from a long-lived donor to a nearby acceptor.

The next data set addresses T2, AKT2 (Homo sapiens, UniProt P31751).
T2 construct: purchased Carna 01-102
In words: In vitro enzyme activity test (HTRF kinEASE TK), AKT2. The settings on record: ATP 20 μM, enzyme 0.1 ng/well, reaction 50 min. Type of data set: biochemical. The procedure: as §1, §2, §3, §4, §5, §6, §7, §8, §9

The mark [2] stands for this setting: male ICR mouse, 10 mg·kg−1 intragastrically, single dose, fasted, plasma.
Setting [3] is: male ICR mouse, 10 mg·kg−1 intragastrically, single dose, fasted, plasma, read-out: AUC.
The mark [4] stands for this setting: male ICR mouse, 10 mg·kg−1 intragastrically, single dose, fasted, plasma, read-out: Cmax.
The mark [5] stands for this setting: male ICR mouse, 10 mg·kg−1 intragastrically, single dose, fasted, plasma, read-out: Tmax.
Where [6] appears, read: male, ICR, mouse, in vivo, 10 mg/kg.

T2 sequence (P31751 whole entry): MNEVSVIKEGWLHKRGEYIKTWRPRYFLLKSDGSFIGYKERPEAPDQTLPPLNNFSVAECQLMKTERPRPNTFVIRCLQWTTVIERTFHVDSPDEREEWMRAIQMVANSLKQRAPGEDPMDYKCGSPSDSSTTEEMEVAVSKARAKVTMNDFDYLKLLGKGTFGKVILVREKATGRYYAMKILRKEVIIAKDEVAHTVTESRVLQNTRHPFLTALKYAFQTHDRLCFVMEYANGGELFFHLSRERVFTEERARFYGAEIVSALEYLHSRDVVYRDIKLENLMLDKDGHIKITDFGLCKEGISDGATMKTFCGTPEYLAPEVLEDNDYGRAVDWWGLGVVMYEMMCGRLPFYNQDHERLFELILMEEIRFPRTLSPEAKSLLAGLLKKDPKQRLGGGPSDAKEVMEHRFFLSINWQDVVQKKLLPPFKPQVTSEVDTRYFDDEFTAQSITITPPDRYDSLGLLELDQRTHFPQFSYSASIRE
T1 sequence (Q9Y243 whole entry): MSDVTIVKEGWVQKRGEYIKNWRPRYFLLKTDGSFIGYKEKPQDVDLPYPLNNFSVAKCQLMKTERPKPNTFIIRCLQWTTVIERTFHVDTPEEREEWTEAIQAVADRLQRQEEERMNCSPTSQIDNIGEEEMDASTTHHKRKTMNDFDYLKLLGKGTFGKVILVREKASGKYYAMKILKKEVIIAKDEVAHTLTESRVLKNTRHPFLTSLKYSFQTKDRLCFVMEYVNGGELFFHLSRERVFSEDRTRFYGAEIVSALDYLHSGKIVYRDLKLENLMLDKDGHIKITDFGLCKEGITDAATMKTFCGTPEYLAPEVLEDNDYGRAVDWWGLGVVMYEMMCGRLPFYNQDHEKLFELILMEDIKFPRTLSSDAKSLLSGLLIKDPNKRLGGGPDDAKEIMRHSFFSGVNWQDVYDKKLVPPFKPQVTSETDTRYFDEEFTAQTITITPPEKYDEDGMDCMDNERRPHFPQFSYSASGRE
AKT1, sequence (P31749 whole entry): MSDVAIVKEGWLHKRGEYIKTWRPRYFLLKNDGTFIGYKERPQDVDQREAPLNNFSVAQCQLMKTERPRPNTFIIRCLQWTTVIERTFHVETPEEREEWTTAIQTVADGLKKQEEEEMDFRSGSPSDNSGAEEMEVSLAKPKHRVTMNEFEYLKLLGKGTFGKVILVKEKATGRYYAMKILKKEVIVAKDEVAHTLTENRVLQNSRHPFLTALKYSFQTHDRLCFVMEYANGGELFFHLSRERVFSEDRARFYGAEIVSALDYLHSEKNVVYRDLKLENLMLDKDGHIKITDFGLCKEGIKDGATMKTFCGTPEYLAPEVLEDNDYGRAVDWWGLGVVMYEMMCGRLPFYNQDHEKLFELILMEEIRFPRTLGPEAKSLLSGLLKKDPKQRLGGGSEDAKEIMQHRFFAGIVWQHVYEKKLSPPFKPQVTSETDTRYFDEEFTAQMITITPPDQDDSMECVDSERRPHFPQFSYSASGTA

The term half-life denotes how long it takes for the measured level to halve. Low readings indicate fast loss, high ones slow loss. In general, AUC refers to concentration integrated over time. One may read the Cmax as the peak of the concentration-time curve. What is called Tmax is the time at which the peak concentration occurs. Regarding `CC(C)NC[C@@H](C(=O)N1CCN(c2ncnc3c2[C@H](C)CC(=O)N3)[C@H]2C[C@H]21)c1ccc(Cl)cc1` (single isomer, unassigned) [Example 15 Isomer 2], the half-life in data set [1] (setting [2]) was 3.16 h. Further, the AUC in data set [1] (setting [3]) came to 2170 ng·h/mL. Besides, the Cmax in data set [1] (setting [4]) was 583 ng/mL. Further, the Tmax in data set [1] (setting [5]) was determined as 1 h.
Broadly, the IC50 is the concentration that inhibits the measured activity by half. High values mean a need for much substance, low ones inhibition by little substance. In the case of `CC(C)NC[C@@H](C(=O)N1C2CCC1CN(c1ncnc3c1[C@H](C(F)(F)F)CC(=O)N3)C2)c1ccc(Cl)cc1` (single isomer, unassigned) [Example 24 Isomer 2], the IC50 is 116 nM on AKT1, 19 nM at AKT3 and ≥ 1000 nM on AKT2.
As for `CC(C)NC[C@@H](C(=O)N1CC2CCC(C1)N2c1ncnc2c1[C@@H](C(F)(F)F)CC(=O)N2)c1ccc(Cl)cc1` (single isomer, unassigned) [Example 25 Isomer 1], the IC50 against AKT1 was 218 nM; against AKT3 it was 20 nM; against AKT2, ≥ 1000 nM.
For `CC(C)NC[C@@H](C(=O)N1CC2CCC(C1)N2c1ncnc2c1[C@H](C(F)(F)F)CC(=O)N2)c1ccc(Cl)cc1` (single isomer, unassigned) [Example 25 Isomer 2], in that order: 0.59 nM, 0.19 nM and 20 nM.
For `CC(C)NC[C@@H](C(=O)N1CCN(c2ncnc3c2N(C)CC(=O)N3)[C@@H]2C[C@@H]21)c1ccc(Cl)cc1` (single isomer, unassigned) [Example 27 Isomer 2], in that order: 147 nM, 7.4 nM and ≥ 1000 nM.
`CC(C)NC[C@@H](C(=O)N1CCN(c2ncnc3c2[C@H](C)OC(=O)N3)[C@H]2C[C@H]21)c1ccc(Cl)cc1` (single isomer, unassigned) [Example 34 Isomer 4]: the IC50 against AKT1 was determined as 0.6 nM; against AKT3, 0.12 nM. In addition, in data set [1] (setting [3]), the AUC turned out to be 2580 ng·h/mL. For the same compound, the Cmax in data set [1] (setting [4]) stood at 497 ng/mL. Moreover, in data set [1] (setting [5]), the Tmax was determined as 4 h.
Regarding `CC(C)NC[C@@H](C(=O)N1C2CCC1CN(c1ncnc3c1[C@@H]1C[C@@H]1C(=O)N3)C2)c1ccc(Cl)cc1` (single isomer, unassigned) [Example 39 Isomer 1], the IC50 against AKT1 worked out at 13 nM; at AKT3 it was 7.6 nM; at AKT2, 75 nM.
For `CC(C)NC[C@@H](C(=O)N1C2CCC1CN(c1ncnc3c1[C@H]1C[C@H]1C(=O)N3)C2)c1ccc(Cl)cc1` (single isomer, unassigned) [Example 39 Isomer 2], in that order: 151 nM, 43 nM and 756 nM.
With `CC(C)NCC(C(=O)N1CCN(c2ncnc3c2[C@H](C)CC(=O)N3)C[C@@H]1C)c1ccc(Cl)cc1` (stereo in doubt) [Example 9, (R)-4-((S)-4-((R)-2-(4-chlorophenyl)-3-(isopropylamino)propionyl)-3-methylpiperazin-1-yl)-5-methyl-5,8-dihydropyrido[2,3-d]pyrimidin-7(6H)-one], the IC50 against AKT1 amounted to 167 nM; on AKT3, 3.3 nM; against AKT2, 206 nM.
As for `CC(C)NC[C@@H](C(=O)N1CCN(c2ncnc3c2[C@H](C)CC(=O)N3)CC1)c1ccc(Cl)cc1` [Example 2 (R) Configur- ation product, (R)-4-(4-((S)-2-(4-chlorophenyl)-3-(isopropylamino)propionyl)piperazin-1-yl)-5-methyl-5,8-dihydropyrido[2,3-d]pyrimidin-7(6H)-one], the figures for the IC50 on AKT1, against AKT3 and at AKT2 were 2.4 nM, 0.4 nM and 4.3 nM, respectively.
As to `CC(C)NC[C@@H](C(=O)N1C2CCC1CN(c1ncnc3c1[C@H](C)CC(=O)N3)C2)c1ccc(Cl)cc1` [Example 10, (R)-4-(8-((S)-2-(4-chlorophenyl)-3-(isopropylamino)propionyl)-3,8-diazabicyclo[3.2.1]octan-3-yl)-5-methyl-5,8-dihydropyrido[2,3-d]pyrimidin-7(6H)-one], the IC50 on AKT1 was found to be 2.8 nM; at AKT3, 0.21 nM. Moreover, the half-life in data set [1] (setting [2]) is 1.67 h. For the same compound, in data set [1] (setting [3]), the AUC was found to be 911 ng·h/mL. Also, in data set [1] (setting [4]), the Cmax was determined as 321 ng/mL. In addition, in data set [1] (setting [5]), the Tmax was 0.5 h.
Regarding `C[C@@H]1CC(=O)Nc2ncnc(N3CCN(C(=O)C4(c5ccc(Cl)cc5)CCNCC4)CC3)c21` [Example 18, (R)-4-(4-(4-(4-chlorophenyl)piperidin-4-carbonyl)piperazin-1-yl)-5-methyl-5,8-dihydropyrido[2,3-d]pyrimidin-7(6H)-one formate], the figures for the IC50 on AKT1, on AKT3 and against AKT2 were 590 nM, 20.1 nM and 256 nM, respectively.
Compound `CC(C)NC[C@@H](C(=O)N1C2CCC1CN(c1ncnc3c1N(C)CC(=O)N3)C2)c1ccc(Cl)cc1` [Example 21, 4-(8-((S)-2-(4-chlorophenyl)-3-(isopropylamino)propionyl)-3,8-diazabicyclo[3.2.1]octan-3-yl)-5-methyl-5,8-dihydropteridine-7(6H)-one formate] showed an IC50 against AKT1 of 1.9 nM. Moreover, the IC50 against AKT3 came out at 0.2 nM. In addition, in data set [1] (setting [6]), the AUC turned out to be 2290 ng·h/mL, the Cmax was determined as 681 ng/mL and the Tmax is 1 h.
With `CC(C)NC[C@@H](C(=O)N1CCN(c2ncnc3c2N(C)CC(=O)N3)C[C@@H]1C)c1ccc(Cl)cc1` [Example 22, 4-((S)-4-((S)-2-(4-chlorophenyl)-3-(isopropylamino)propionyl)-3-methylpiperazin-1-yl)-5-methyl-5,8-dihydropteridine-7(6H)-one], the IC50 at AKT1 was determined as 39 nM; against AKT3, 0.56 nM; against AKT2, 334 nM.
For `CCN1CC(=O)Nc2ncnc(N3CC4CCC(C3)N4C(=O)[C@H](CNC(C)C)c3ccc(Cl)cc3)c21` [Example 28] the same measures were 2.1 nM, 0.19 nM and 89 nM.
Consider `CC(C)NC[C@@H](C(=O)N1C2CCC1CN(c1ncnc3c1N(CCO)CC(=O)N3)C2)c1ccc(Cl)cc1` [Example 31], for which the values for the concentration for half-maximal inhibition (IC50) against AKT1, at AKT3 and on AKT2 were 210 nM, 1.8 nM and ≥ 1000 nM, respectively.
Regarding `CC(C)NC[C@@H](C(=O)N1C2CCC1CN(c1ncnc3[nH]c(=O)c(=O)n(C)c13)C2)c1ccc(Cl)cc1` [Example 36, 4-(8-((S)-2-(4-chlorophenyl)-3-(isopropylamino)propionyl)-3,8-diazabicyclo[3.2.1]octan-3-yl)-5-methyl-5,8-dihydropteridine-6,7-dione], the IC50 against AKT1 came out at 77 nM; at AKT3, 22 nM; against AKT2, 800 nM.
As to `C[C@@H]1CC(=O)Nc2ncnc(N3CC4CCC(C3)N4C(=O)[C@H](CNC3CC3)c3ccc(Cl)cc3)c21` [Example 38], the IC50 against AKT1 came out at 2.4 nM; against AKT3 it was 0.28 nM; at AKT2, 23 nM.
As for `CC(C)NC[C@@H](C(=O)N1CCN(c2ncnc3c2[C@H](C)C[C@H]3O)CC1)c1ccc(Cl)cc1` [GDC-0068, reference compound], the half-life in data set [1] (setting [2]) was 2.59 h. The exposure (AUC) in data set [1] (setting [3]) was found to be 320 ng·h/mL. In data set [1] (setting [4]), the Cmax is 75.3 ng/mL. Further, the Tmax in data set [1] (setting [5]) turned out to be 2 h.
